Source: patent US6762181B1, “Aminomethylpyrrolidine derivatives having aromatic substituents” (Daiichi Pharmaceutical Co., Ltd., priority 1999, dated 2004)
Converted amounts (≈) assume the structure as drawn. Read-outs that look alike come from different tables or passages of the source.

Assays:
Assay in all cases: Antibacterial activity (MIC), Japan Society of Chemotherapy standard method
Assay type in all cases: cell-based
S. epidermidis 56500 = tested on: S. epidermidis 56500
Protocol: (§1) Antibacterial activities of the compounds of the invention were measured in accordance with the standard method specified by the Japan Society of Chemotherapy, with the results shown in the following table as MIC values (μg/ml). In this connection, MIC values of levofloxacin (LVFX), ciprofloxacin (CPFX) and 5-amino-7-[3-(R)-[1-(S)-aminoethyl]pyrrolidin-1-yl]-6-fluoro-1-[2-(S)-fluoro-1-(R)-cyclopropyl]-8-methyl-1,4-dihydro-4-oxoquinoline-3-carboxylic acid (control drug 1) described in WO 9623782 are also shown for the sake of comparison with the MIC values of the compounds of the invention.

S. aureus 870307 = tested on: S. aureus 870307
Protocol: as §1

Ps. aeruginosa 32121 = tested on: Ps. aeruginosa 32121
Protocol: as §1

Ser. marcescens 10100 = tested on: Ser. marcescens 10100
Protocol: as §1

K. pneumoniae TYPE 1 = tested on: K. pneumoniae TYPE 1
Protocol: as §1

Ps. aeruginosa 32104 = tested on: Ps. aeruginosa 32104
Protocol: as §1

E. faecalis ATCC 19433 = tested on: E. faecalis ATCC 19433
Protocol: as §1

Pr. Vulgaris O8601 = tested on: Pr. Vulgaris O8601
Protocol: as §1

Str. pneumoniae J24 = tested on: Str. pneumoniae J24
Protocol: as §1

Str. pyrogenes G-36 = tested on: Str. pyrogenes G-36
Protocol: as §1

E. coli NIHJ = tested on: E. coli NIHJ
Protocol: as §1

S. aureus FDA 209P = tested on: S. aureus FDA 209P
Protocol: as §1

X. maltophilia IID 1275 = tested on: X. maltophilia IID 1275
Protocol: as §1

S. flexneri 2A 5503 = tested on: S. flexneri 2A 5503
Protocol: as §1

[1] = Staphylococcus epidermidis, read-out: MIC
[2] = Staphylococcus aureus, 870307, S. aureus 870307, read-out: MIC
[3] = Pseudomonas aeruginosa, 32121, Ps. aeruginosa 32121, read-out: MIC
[4] = Serratia marcescens, 10100, Ser. marcescens 10100, read-out: MIC
[5] = Klebsiella pneumoniae, TYPE1, K. pneumoniae TYPE 1, read-out: MIC
[6] = Pseudomonas aeruginosa, 32104, Ps. aeruginosa 32104, read-out: MIC
[7] = Enterococcus faecalis, ATCC19433, E. faecalis ATCC 19433, read-out: MIC
[8] = Proteus vulgaris, read-out: MIC
[9] = Streptococcus pneumoniae, J24, Str. pneumoniae J24, read-out: MIC
[10] = Escherichia coli, read-out: MIC
[11] = Staphylococcus aureus, FDA209P, read-out: MIC
[12] = Stenotrophomonas maltophilia, IID1275, X. maltophilia IID 1275, read-out: MIC
[13] = Shigella flexneri, 2A5503, S. flexneri 2A 5503, read-out: MIC

SMILES | MIC (S. epidermidis 56500) | MIC (S. aureus 870307; S. aureus 870307) | MIC (Ps. aeruginosa 32121; Ps. aeruginosa 32121) | MIC (Ser. marcescens 10100; Ser. marcescens 10100) | MIC (K. pneumoniae TYPE 1; K. pneumoniae TYPE 1) | MIC (Ps. aeruginosa 32104; Ps. aeruginosa 32104) | MIC (E. faecalis ATCC 19433; E. faecalis ATCC 19433) | MIC (Pr. Vulgaris O8601) | MIC (Str. pneumoniae J24; Str. pneumoniae J24) | MIC (Str. pyrogenes G-36) | MIC (E. coli NIHJ) | MIC (S. aureus FDA 209P) | MIC (X. maltophilia IID 1275; X. maltophilia IID 1275) | MIC (S. flexneri 2A 5503; S. flexneri 2A 5503) | MIC (S. epidermidis 56500; [1]) | MIC (Ps. aeruginosa 32121; [3]) | MIC (Ser. marcescens 10100; [4]) | MIC (K. pneumoniae TYPE 1; [5]) | MIC (Ps. aeruginosa 32104; [6]) | MIC (Str. pneumoniae J24; [9]) | further results
C[C@H]1COc2c(N3CC[C@@H](C(N)c4ccccc4)C3)c(F)cc3c(=O)c(C(=O)O)cn1c23 (stereo partly drawn) [Example 4, 10-[3-(R)-(1-Amino-1-Phenylmethyl)-1-Pyrrolidinyl]-9-Fluoro-2,3-Dihydro-3-(S)-Methyl-7-Oxo-7H-Pyrido [1,2,3,-de] [1,4] Benzoxazine-6-Carboxylic Acid] | ≦0.003 μg/ml | ≦0.003 μg/ml | 0.05 µg/mL (≈ 0.114 µM) | 0.025 µg/mL (≈ 0.0571 µM) | 0.025 µg/mL (≈ 0.0571 µM) | 0.1 µg/mL (≈ 0.229 µM) | 0.006 µg/mL (≈ 0.0137 µM) | 0.013 µg/mL (≈ 0.0297 µM) | ≦0.003 μg/ml | ≦0.003 μg/ml | ≦0.003 μg/ml | ≦0.003 μg/ml | 0.05 µg/mL (≈ 0.114 µM) | ≦0.003 μg/ml | – | – | – | – | – | – | –
Cc1c(N2CC[C@@H](C(N)c3ccccc3)C2)c(F)c(N)c2c(=O)c(C(=O)O)cn([C@@H]3C[C@@H]3F)c12 (stereo partly drawn) [Example 5, 5-Amino-7-[3-(R)-(1-Amino-1-Phenylmethyl)-1-Pyrrolidinyl]-6-Fluoro-1-[2-(S)-Fluoro-1-(R)-Cyclopropyl]-1,4-Dihydro-8-Methyl-4-Oxoquinoline-3-Carboxylic Acid] | – | – | – | – | – | – | – | – | – | – | – | – | – | – | ≤ 0.003 µg/mL | 0.025 µg/mL (≈ 0.0534 µM) | 0.025 µg/mL (≈ 0.0534 µM) | 0.013 µg/mL (≈ 0.0277 µM) | 0.1 µg/mL (≈ 0.213 µM) | ≤ 0.003 µg/mL | MIC (S. aureus 870307; [2]): ≤ 0.003 µg/mL; MIC (E. faecalis ATCC 19433; [7]): 0.006 µg/mL (≈ 0.0128 µM); MIC (Pr. Vulgaris O8601; [8]): 0.013 µg/mL (≈ 0.0277 µM); MIC (Str. pyrogenes G-36; read-out: MIC): ≤ 0.003 µg/mL; MIC (E. coli NIHJ; [10]): ≤ 0.003 µg/mL; MIC (S. aureus FDA 209P; [11]): ≤ 0.003 µg/mL; MIC (X. maltophilia IID 1275; [12]): 0.025 µg/mL (≈ 0.0534 µM); MIC (S. flexneri 2A 5503; [13]): ≤ 0.003 µg/mL
COc1c(N2CC[C@@H](C(N)c3ccccc3)C2)ccc2c(=O)c(C(=O)O)cn([C@@H]3C[C@@H]3F)c12 (stereo partly drawn) [Example 6, 7-[3-(R)-(1-Amino-1-Phenylmethyl)-1-Pyrrolidinyl]-1-[2-(S)-Fluoro-1-(R)-Cyclopropyl]-1,4-Dihydro-8-Methoxy-4-Oxoquinoline-3-Carboxylic Acid] | – | – | – | – | – | – | – | – | – | – | – | – | – | – | 0.006 µg/mL (≈ 0.0133 µM) | 0.1 µg/mL (≈ 0.221 µM) | 0.1 µg/mL (≈ 0.221 µM) | 0.05 µg/mL (≈ 0.111 µM) | 0.2 µg/mL (≈ 0.443 µM) | ≤ 0.003 µg/mL | MIC (S. aureus 870307; [2]): 0.013 µg/mL (≈ 0.0288 µM); MIC (E. faecalis ATCC 19433; [7]): 0.025 µg/mL (≈ 0.0554 µM); MIC (Pr. Vulgaris O8601; [8]): 0.1 µg/mL (≈ 0.221 µM); MIC (Str. pyrogenes G-36; read-out: MIC): ≤ 0.003 µg/mL; MIC (E. coli NIHJ; [10]): 0.006 µg/mL (≈ 0.0133 µM); MIC (S. aureus FDA 209P; [11]): ≤ 0.003 µg/mL; MIC (X. maltophilia IID 1275; [12]): 0.1 µg/mL (≈ 0.221 µM); MIC (S. flexneri 2A 5503; [13]): 0.013 µg/mL (≈ 0.0288 µM)
COc1ccccc1C(N)[C@@H]1CCN(c2c(F)c(N)c3c(=O)c(C(=O)O)cn([C@@H]4C[C@@H]4F)c3c2F)C1 (stereo partly drawn) [Example 8, 5-Amino-7-[3-(R)-(1-Amino-1-(2-Methoxy) Phenylmethyl)-1-Pyrrolidinyl]-6,8-Difluoro-1-[2-(S)-Fluoro-1-(R)-Cyclopropyl]-1,4-Dihydro-4-Oxoquinoline-3-Carboxylic Acid] | ≦0.003 μg/ml | 0.013 µg/mL (≈ 0.0259 µM) | 0.1 µg/mL (≈ 0.199 µM) | 0.2 µg/mL (≈ 0.398 µM) | 0.05 µg/mL (≈ 0.0995 µM) | 0.2 µg/mL (≈ 0.398 µM) | 0.025 µg/mL (≈ 0.0498 µM) | 0.2 µg/mL (≈ 0.398 µM) | ≦0.003 μg/ml | ≦0.003 μg/ml | ≦0.003 μg/ml | ≦0.003 μg/ml | 0.2 µg/mL (≈ 0.398 µM) | 0.006 µg/mL (≈ 0.0119 µM) | – | – | – | – | – | – | –
Nc1c(F)c(N2CC[C@@H](C(N)c3ccc(F)cc3F)C2)c(F)c2c1c(=O)c(C(=O)O)cn2[C@@H]1C[C@@H]1F (stereo partly drawn) [Example 10, 5-Amino-7-[3-(R)-(1Amino-1-(2,4-Difluoro) Phenylmethyl)-1-Pyrrolidinyl]-6,8-Difluoro-1-[2-(S)-Fluoro-1-(R)-Cyclopropyl]-1,4-Dihydro-4-Oxoquinoline-3-Carboxylic Acid] | ≦0.003 μg/ml | 0.006 µg/mL (≈ 0.0118 µM) | 0.1 µg/mL (≈ 0.197 µM) | 0.1 µg/mL (≈ 0.197 µM) | 0.013 µg/mL (≈ 0.0256 µM) | 0.2 µg/mL (≈ 0.393 µM) | 0.025 µg/mL (≈ 0.0492 µM) | 0.1 µg/mL (≈ 0.197 µM) | ≦0.003 μg/ml | ≦0.003 μg/ml | ≦0.003 μg/ml | ≦0.003 μg/ml | 0.05 µg/mL (≈ 0.0983 µM) | ≦0.003 μg/ml | – | – | – | – | – | – | –
Nc1c(F)c(N2CC[C@@H](C(N)c3ccco3)C2)c(F)c2c1c(=O)c(C(=O)O)cn2[C@@H]1C[C@@H]1F (stereo partly drawn) [Example 11, 5-Amino-7-{3-(R)-[1-amino-1-(2-furyl)methyl]-1-pyrrolidinyl}-6,8-difluoro-1-[2-(S)-fluoro-1-(R)-cyclopropyl]-1,4-dihydro-4-oxoquinoline-3-carboxylic acid] | – | 0.025 µg/mL (≈ 0.0541 µM) | – | – | – | – | 0.025 µg/mL (≈ 0.0541 µM) | 0.05 µg/mL (≈ 0.108 µM) | – | 0.013 µg/mL (≈ 0.0281 µM) | ≦0.003 μg/ml | – | – | ≦0.003 μg/ml | ≤ 0.003 µg/mL | 0.05 µg/mL (≈ 0.108 µM) | 0.05 µg/mL (≈ 0.108 µM) | 0.025 µg/mL (≈ 0.0541 µM) | 0.2 µg/mL (≈ 0.432 µM) | 0.006 µg/mL (≈ 0.013 µM) | MIC (S. aureus FDA 209P; [11]): ≤ 0.003 µg/mL; MIC (X. maltophilia IID 1275; [12]): 0.05 µg/mL (≈ 0.108 µM)
Nc1c(F)c(N2CC[C@@H](C(N)c3ccco3)C2)c(F)c2c1c(=O)c(C(=O)O)cn2[C@@H]1C[C@@H]1F (stereo partly drawn) [Example 12, 5-Amino-7-{3-(R)-[1-amino-1-(2-furyl)methyl]-1-pyrrolidinyl}-6,8-difluoro-1-[2-(S)-fluoro-1-(R)-cyclopropyl]-1,4-dihydro-4-oxoquinoline-3-carboxylic acid] | ≦0.003 μg/ml | ≦0.003 μg/ml | 0.05 µg/mL (≈ 0.108 µM) | 0.025 µg/mL (≈ 0.0541 µM) | 0.025 µg/mL (≈ 0.0541 µM) | 0.1 µg/mL (≈ 0.216 µM) | 0.006 µg/mL (≈ 0.013 µM) | 0.013 µg/mL (≈ 0.0281 µM) | ≦0.003 μg/ml | ≦0.003 μg/ml | – | ≦0.003 μg/ml | 0.05 µg/mL (≈ 0.108 µM) | – | – | – | – | – | – | – | MIC (E. coli NIHJ; [10]): ≤ 0.003 µg/mL; MIC (S. flexneri 2A 5503; [13]): ≤ 0.003 µg/mL
Nc1c(F)c(N2CC[C@@H](C(N)c3ccccn3)C2)c(F)c2c1c(=O)c(C(=O)O)cn2[C@@H]1C[C@@H]1F (stereo partly shown) [Example 16] | ≦0.003 μg/ml | 0.006 µg/mL (≈ 0.0127 µM) | 0.05 µg/mL (≈ 0.106 µM) | 0.1 µg/mL (≈ 0.211 µM) | 0.025 µg/mL (≈ 0.0528 µM) | 0.2 µg/mL (≈ 0.422 µM) | 0.013 µg/mL (≈ 0.0275 µM) | 0.025 µg/mL (≈ 0.0528 µM) | ≦0.003 μg/ml | ≦0.003 μg/ml | ≦0.003 μg/ml | ≦0.003 μg/ml | 0.1 µg/mL (≈ 0.211 µM) | ≦0.003 μg/ml | – | – | – | – | – | – | –
